Results published in paper PMC5648763, “Novel cycloneolignans from Vernicia fordii with inhibitory effects on over-activation of BV2 cells in vitro” (Scientific Reports, 2017).

Key:
Format in all cases: cell-based, murine
[1] = test system: BV2 cells; assay: Cell viability / cytotoxicity by MTT method
Protocol: (§1) Figure 5 Effect of compounds 1 and 2 on LPS-induced NO production in microglial cells. (A) BV-2 cells were treated with compounds 1 and 2 in the presence of LPS (100 ng/ml) for 24 h at the indicated concentrations. Cell viability was detected by MTT assay. (B) BV-2 cells were treated with compounds 1 and 2 in the presence of LPS (100 ng/ml) for 24 h. NO production was tested by Griess reaction. Data are expressed as means ± SEM (n = 3). ^#P < 0.05 compared with the control group, *P < 0.05 compared with LPS group.
(§2) The murine microglial cell line BV-2 was from Shanghai Institutes for Biological Sciences, Chinese Academy of Sciences (kindly provided by Prof. Y.Q. Guo, Nankai University, China). BV-2 cells were grown (37 °C and 5% CO2) in DMEM supplemented with 10% FBS, 100 U/ml penicillin and 100 μ g/ml streptomycin. Stock cells were passaged about three times/week and used within 8 passages.
(§3) Viability of BV2 cells was tested by MTT method described in our previous work[9]–[12]. The cells (2 × 10^4 cells / well) were plated into 96-well plates and were pretreated with tested samples at different concentrations for 24 h. After the supernatant taken away, MTT (0.25 mg/ml) was added into the plate and incubated for 4 h at 37 °C. Finally, the formazan crystals were dissolved in DMSO and the absorbance of each well was recorded at 490 nm using a plate reader (Bio-Tek, Winooski, VT, USA).

[2] = Cell viability / cytotoxicity by MTT method; details: mouse
Protocol: as §1, §2, §3

[3] = test system: IL-6 mRNA expression in BV2 cells; assay: LPS-induced IL-6 mRNA expression in BV-2 cells (Real-time PCR); details: 10 μM, pretreated 2 h, then LPS (100 ng/mL) 4 h, qRT-PCR
Protocol: (§4) Figure 7 Effects of compounds 1, 1a, 1b, 2, 2a and 2b on LPS-induced IL-6 and IL-1β mRNA expression in microglial cells. BV-2 microglial cells were pretreated with compounds1, 2, 1a, 1b, 2a and 2b (10 μM) for 2 h and then stimulated with LPS (100 ng/mL). Total RNA was isolated 4 h after LPS treatment, the mRNA levels of IL-6 and IL-1β were measured by qRT-PCR. Data are expressed as means ± SEM (n = 3). ^#P < 0.05 compared with the control group, *P < 0.05 compared with LPS group. Mino stands for minocycline.
as §2
(§5) BV2 cells (4 × 10^5 cells/ml) were plated into 6-well plates and were pretreated with each sample for 2 h and then induced by LPS for 4 h. After that the total RNA was isolated using Trizol and converted to cDNA. CFX ConnectTM real-time PCR detection system (Bio-Rad, Hercules, CA, USA) was used for the experiment. The level of GAPDH gene was used for standardization.

[4] = test system: NO production in LPS-induced BV2 cells; assay: Nitrite assay (Griess reaction): NO production in LPS-induced BV2 cells; details: Mus musculus, BV-2, LPS (100 ng/ml)-activated BV2 cells, 24 h, read-out: Inhibitory effect IC50 on NO production (compounds)
Protocol: as §1, §2
The production of NO in LPS-induced BV2 cells was assayed by Griess reaction[9]–[12]. The cells (2 × 10^4 cells/well) were plated into 96-well plates and incubated with tested samples with 100 ng/mL LPS. Twenty-four hours later, Griess reagent was added into the supernatant at room temperature. And the plates were read on a plate reader at 540 nm after fifteen minutes.

[5] = test system: IL-1β mRNA expression in BV2 cells; assay: LPS-induced IL-1β mRNA expression in BV-2 cells (Real-time PCR); details: 10 μM, pretreated 2 h, then LPS (100 ng/mL) 4 h, qRT-PCR
Protocol: as §4, §2, §5

IC50 [4] [µM]	Structure (SMILES)	Cytotoxicity at the effective concentrations [1]	IC50 at 24 h [2] [µM]	Effect on LPS-induced IL-6 mRNA expression [3]	Effect on LPS-induced IL-1β mRNA expression [5]
17.4 ± 0.87	COC1CC2(O)OCC(c3cc(O)c(O)cc31)C2c1ccc(O)c(O)c1 (racemic) [Compound 2, (±) methoxylverniciasin A]	without obvious cytotoxicities	> 100	did not show inhibitory effect	did not show inhibitory effect
1.46 ± 0.91	Oc1ccc(C2C3COC2(O)CC(O)c2cc(O)c(O)cc23)cc1O (stereo not shown) [Compound 1, Verniciasin A]	without obvious cytotoxicities	> 100	suppressed	suppressed
–	Oc1ccc(C2C3COC2(O)CC(O)c2cc(O)c(O)cc23)cc1O (stereo not shown) [Compound 1a, 7R, 8R, 7′R, 9′S-verniciasin A]	–	–	significant inhibitory action	significant inhibitory action
–	Oc1ccc(C2C3COC2(O)CC(O)c2cc(O)c(O)cc23)cc1O (stereo not shown) [Compound 1b, 7S, 8S, 7′S, 9′R- verniciasin A]	–	–	did not display inhibitory activity	did not display inhibitory activity
–	COC1CC2(O)OCC(c3cc(O)c(O)cc31)C2c1ccc(O)c(O)c1 (stereo not shown) [Compound 2a, 7R, 8R, 7′R, 9′S−7′-methoxylverniciasin A]	–	–	moderate inhibitory effect	moderate inhibitory effect
